In patent US20250011288A1 (BRISTOL-MYERS SQUIBB COMPANY, priority 2021, published 2025):
pEC50: −log10 of the molar value.

The compounds below were run against T1, human RXFP1 (Homo sapiens, UniProt Q9HBX9) (assay: human RXFP1 (hRXFP1) HEK293 cAMP assay (HTRF)). Details: HEK293 cells stably expressing human RXFP1, 30 min at room temperature.
T1 construct: expressed in transfected cells
T1 sequence (Q9HBX9 1-757): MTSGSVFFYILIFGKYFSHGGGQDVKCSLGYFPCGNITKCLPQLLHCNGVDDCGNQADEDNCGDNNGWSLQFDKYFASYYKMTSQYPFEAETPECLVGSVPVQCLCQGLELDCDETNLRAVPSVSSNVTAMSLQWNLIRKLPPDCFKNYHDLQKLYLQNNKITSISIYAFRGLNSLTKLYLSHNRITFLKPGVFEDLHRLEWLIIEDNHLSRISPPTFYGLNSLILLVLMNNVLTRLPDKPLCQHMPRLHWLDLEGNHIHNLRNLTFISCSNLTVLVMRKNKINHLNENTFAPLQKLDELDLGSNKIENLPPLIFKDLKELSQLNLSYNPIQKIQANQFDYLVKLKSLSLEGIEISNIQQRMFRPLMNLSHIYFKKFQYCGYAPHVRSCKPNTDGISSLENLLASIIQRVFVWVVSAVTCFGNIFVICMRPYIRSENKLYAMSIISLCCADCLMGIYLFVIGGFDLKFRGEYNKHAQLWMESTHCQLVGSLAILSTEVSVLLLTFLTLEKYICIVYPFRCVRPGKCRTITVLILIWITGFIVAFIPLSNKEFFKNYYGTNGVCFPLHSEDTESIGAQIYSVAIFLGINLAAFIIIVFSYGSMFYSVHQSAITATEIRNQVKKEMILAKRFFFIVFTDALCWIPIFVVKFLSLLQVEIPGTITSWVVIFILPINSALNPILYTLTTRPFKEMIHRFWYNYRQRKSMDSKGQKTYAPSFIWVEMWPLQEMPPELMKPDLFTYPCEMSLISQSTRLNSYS
Type: cell-based
Method in brief: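 Intracellular cAMP was quantified by HTRF after a 30 min room-temperature exposure of hRXFP1-HEK293 cells (1500/well) to compound at 0.010 nM–50 µM final, 2% DMSO. Buffer was HBSS with 20 mM HEPES, 0.05% BSA and 0.5 mM IBMX; values came from a 4-parameter logistic fit.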

Q: `COc1ncc(C2=NOC3CC(CO)CC23)cc1C(=O)N[C@@H]1C2CCC(/C2=C/c2csc(C)n2)[C@@H]1C(=O)N[C@H](C)C1(C)CC1` (some centres unmarked) [Example 99] was tested. Which pEC50 did it give?
A: 8.49

Q: `COc1cnc(-c2cc(C(=O)O)ccc2F)cc1C(=O)N[C@@H]1C2CCC(/C2=C/C(F)(F)F)[C@@H]1C(=O)Nc1ccc(F)c(C(F)(F)F)c1` (stereo partly drawn) [Example 30, 4-Fluoro-3-(4-{[(2R,3S,7Z)-3-{[4-fluoro-3-(trifluoromethyl)phenyl]carbamoyl}-7-(2,2,2-trifluorocthylidene)bicyclo[2. 2.1]heptan-2-yl]carbamoyl}-5-methoxypyridin-2-yl)benzoic acid] was tested. Which pEC50 did it give?
A: 6.96

Q: With `COc1ncc(C2=NO[C@@H]3C[C@H](CO)CN23)cc1C(=O)N[C@@H]1C2CCC(/C2=C/C2CC2)[C@@H]1C(=O)Nc1ccc(F)c(C(F)(F)F)c1` (stereo partly drawn) [Example 132, N-((1R,2R,3S,4R,Z)-7-(cyclopropyl-methylene)-3-((4-fluoro-3-(trifluoromethyl)phenyl)carbamoyl)bicyclo[2.2.1]heptan-2-yl)-5-((6S,7aR)-6-(hydroxymethyl)-5,6,7,7a-tetrahydropyrrolo [1,2-d][1,2,4]oxadiazo 1-3-yl)-2-methoxynicotinamide] as the compound, how does the pEC50 read?
A: 8.74

Q: How did the pEC50 turn out when `CC1Cc2cc(C3=NOC4CC(CO)CC34)cc(C(=O)N[C@H]3[C@@H](C(=O)N[C@H](C)C4(C)CC4)[C@H]4CC[C@@H]3/C4=C\C3CC3)c2O1` (stereo partly drawn) [Example 153, N-[(1R,2R,3S,4R, 7Z)-7-(cyclopropyl-methylidene)-3-{[(1R)-1-(1-methylcyclopropyl)ethyl]carbamoyl}bicyclo[2.2.1]heptan-2-yl]-5-[5-(hydroxymethyl) 3aH,4H,5H,6H, 6aH-cyclopenta[d][1,2]oxazol-3-yl]-2-methyl-2,3-dihydro-1-benzofuran-7-carboxamide] was run?
A: 8.34

Q: How did the pEC50 turn out when `COc1cnc(C2=NOC3COCC23)cc1C(=O)N[C@H]1[C@@H](C(=O)Nc2ccc(F)c(C(F)(F)F)c2)[C@H]2CC[C@@H]1/C2=C\C1CC1` (single isomer, unassigned) [Example 71] was run?
A: 7.55

Q: With `COc1ncc(C2=NOC3CC(CO)CC23)cc1C(=O)N[C@@H]1C2CCC(/C2=C/C2CC2)[C@@H]1C(=O)Nc1ccc(F)c(C(F)(F)F)c1` (single isomer, unassigned) [Example 67] as the compound, how does the pEC50 read?
A: 6.52

Q: With `O=C(N[C@@H]1C2CCC(/C2=C/C(F)(F)F)[C@@H]1C(=O)Nc1ccc(F)c(C(F)(F)F)c1)c1cc(=O)c2ccccc2o1` (stereo partly drawn) [Example 16, N-[(2R,3S,7Z)-3-{[4-fluoro-3-(trifluoromethyl)phenyl]carbamoyl}-7-(2,2,2-trifluoroethylidene)bicyclo[2. 2.1]heptan-2-yl]-4-oxo-4H-chromene-2-carboxamide] as the compound, how does the pEC50 read?
A: 5.42

Q: How did the pEC50 turn out when `COc1ncc(C2=NOC3CC(C(C)O)CC23)cc1C(=O)N[C@H]1[C@@H](C(=O)Nc2ccc(F)c(C(F)(F)F)c2)[C@H]2CC[C@@H]1/C2=C\C1CCCC1` (stereo partly drawn) [Example 128, N-((1R,2R,3S,4R,Z)-7-(cyclopentylmethylene)-3-((4-fluoro-3-(trifluoromethyl)phenyl)carbamoyl)bicyclo[2.2.1]heptan-2-yl)-5-(5-(1-hydroxyethyl)-3a,5,6,6a-tetrahydro-4H-cyclopenta[d]isoxazol-3-yl)-2-methoxynicotinamide] was run?
A: 8.31

Q: With `COc1ncc(-c2cc([C@H](OC(=O)NC3CCC3)C(F)(F)F)ccc2F)cc1C(=O)N[C@@H]1C2CCC(/C2=C/C2CC(F)(F)C2)[C@@H]1C(=O)Nc1ccc(F)c(C(F)(F)F)c1` (stereo partly drawn) [Example 169, (1S)-1-[3-(5-{[(2R,3S,7Z)-7-[(3,3-difluorocyclobutyl)methylidene]-3-{[4-fluoro-3-(trifluoromethyl)phenyl]carbamoyl}bicyclo[2.2.1]heptan-2-yl]carbamoyl}-6-methoxypyridin-3-yl)-4-fluorophenyl]-2,2,2-trifluoroethyl N-cyclobutyl-carbamate] as the compound, how does the pEC50 read?
A: 8.10

Q: How did the pEC50 turn out when `COc1ncc(C(=O)OC(C)(C)C)cc1C(=O)N[C@H]1[C@@H](C(=O)Nc2ccc(F)c(C(F)(F)F)c2)[C@H]2CC[C@@H]1/C2=C\C1CC1` [Example 78, tert-butyl 5-(((1R,2R,3S,4R,Z)-7-(cyclopropylmethylene)-3-((4-fluoro-3-(trifluoromethyl)phenyl)carbamoyl)bicyclo[2.2.1]heptan-2-yl)carbamoyl)-6-methoxynicotinate] was run?
A: 6.85

Q: With `COc1ncc(C2=NOC3CC(C(OC(=O)NC4CCC4)C(F)(F)F)CC23)cc1C(=O)N[C@@H]1C2CCC(/C2=C/C2CC2)[C@@H]1C(=O)Nc1ccc(F)c(C(F)(F)F)c1` (stereo partly drawn) [Example 171, 1-[3-(5-{[(2R,3S,7Z)-7-(cyclopropyl-methylidene)-3-{[4-fluoro-3-(trifluoromethyl)phenyl]carbamoyl}bicyclo[2.2.1]heptan-2-yl]carbamoyl}-6-methoxypyridin-3-yl)-3aH,4H,5H,6H, 6aH-cyclopenta[d][1,2]oxazol-5-yl]-2,2,2-trifluoroethyl N-cyclobutyl-carbamate] as the compound, how does the pEC50 read?
A: 8.10

Q: With `COc1cc2c(cc1C(=O)N[C@H]1[C@@H](C(=O)Nc3ccc(F)c(C(F)(F)F)c3)[C@H]3CC[C@@H]1/C3=C\C1CC1)CN(C(=O)OC(C)(C)C)CC2` [Example 82, tert-butyl 7-(((1R,2R,3S,4R,Z)-7-(cyclopropylmethylene)-3-((4-fluoro-3-(trifluoromethyl)phenyl)carbamoyl)bicyclo[2.2.1]heptan-2-yl)carbamoyl)-6-methoxy-3,4-dihydroisoquinoline-2(1H)-carboxylate] as the compound, how does the pEC50 read?
A: 6.18

Q: `COc1cccc2cc(C(=O)N[C@@H]3C4CCC(/C4=C/C(F)(F)F)[C@@H]3C(=O)Nc3ccc(F)c(C(F)(F)F)c3)cnc12` (stereo partly drawn) [Example 14, N-[(2R,3S,7Z)-3-{[4-fluoro-3-(trifluoromethyl)phenyl]carbamoyl}-7-(2,2,2-trifluoroethylidene)bicyclo[2.2.1]heptan-2-yl]-8-methoxyquinoline-3-carboxamide] was tested. Which pEC50 did it give?
A: 5.54

Q: With `COc1cc2c(cc1C(=O)N[C@H]1[C@@H](C(=O)Nc3ccc(F)c(C(F)(F)F)c3)[C@H]3CC[C@@H]1/C3=C\C1CC1)CNCC2` [Example 83, N-((1R,2R,3S,4R,Z)-7-(cyclopropylmethylene)-3-((4-fluoro-3-(trifluoromethyl)phenyl)carbamoyl)bicyclo[2.2.1]heptan-2-yl)-6-methoxy-1,2,3,4-tetrahydroisoquinoline-7-carboxamide] as the compound, how does the pEC50 read?
A: 5.62

Q: With `COc1ncc(C2=NOC3COCC23)cc1C(=O)N[C@H]1[C@@H](C(=O)Nc2ccc(F)c(C(F)(F)F)c2)[C@H]2CC[C@@H]1/C2=C\C1CC1` (single isomer, unassigned) [Example 60] as the compound, how does the pEC50 read?
A: 6.68

Q: With `COc1ncc(C2=NOC3CC(CO)CC23)cc1C(=O)N[C@H]1[C@@H](C(=O)Nc2ccc(F)c(C(F)(F)F)c2)[C@H]2CC[C@@H]1/C2=C\c1cscn1` (stereo partly drawn) [Example 97, N-((1R,2R,3S,4R,Z)-3-((4-fluoro-3-(trifluoromethyl)phenyl)carbamoyl)-7-(thiazol-4-ylmethylene)bicyclo [2.2.1]heptan-2-yl)-5-(5-(hydroxymethyl)-3a,5,6,6a-tetrahydro-4H-cyclopenta[d]isoxazol-3-yl)-2-methoxy-nicotinamide] as the compound, how does the pEC50 read?
A: 8.51

Q: `COc1ncc(C2=NOC3COCC23)cc1C(=O)N[C@H]1[C@@H](C(=O)Nc2ccc(F)c(C(F)(F)F)c2)[C@H]2CC[C@@H]1/C2=C\C1CCCC1` (stereo partly drawn) [Example 136, N-((1R,2R,3S,4R,Z)-7-(cyclopentyl-methylene)-3-((4-fluoro-3-(trifluoromethyl)phenyl)carbamoyl)bicyclo[2.2.1]heptan-2-yl)-2-methoxy-5-(3a,4,6,6a-tetrahydrofuro[3,4-d]isoxazol-3-yl)nicotinamide] was tested. Which pEC50 did it give?
A: 8.60
